Data taken from US7754759B2, “Arylsulfonyl chromans as 5-HT6 inhibitors” (Roche Palo Alto LLC, priority 2005, dated 2010).
Counter-ions that a name gives are not always drawn.

Tests used:
[1] = biological target: T1, recombinant human 5-HT2A receptor (Homo sapiens, UniProt P28223); assay: Radioligand binding, [3H]Ketanserin competition at 5-HT2A receptor; conditions: membranes of CHO-K1 cells expressing recombinant human 5-HT2A receptor, 32° C., read-out: pKi for the 5-HT2A receptor (converted)
T1 construct: expressed in transfected cells
T1 sequence (P28223 whole entry): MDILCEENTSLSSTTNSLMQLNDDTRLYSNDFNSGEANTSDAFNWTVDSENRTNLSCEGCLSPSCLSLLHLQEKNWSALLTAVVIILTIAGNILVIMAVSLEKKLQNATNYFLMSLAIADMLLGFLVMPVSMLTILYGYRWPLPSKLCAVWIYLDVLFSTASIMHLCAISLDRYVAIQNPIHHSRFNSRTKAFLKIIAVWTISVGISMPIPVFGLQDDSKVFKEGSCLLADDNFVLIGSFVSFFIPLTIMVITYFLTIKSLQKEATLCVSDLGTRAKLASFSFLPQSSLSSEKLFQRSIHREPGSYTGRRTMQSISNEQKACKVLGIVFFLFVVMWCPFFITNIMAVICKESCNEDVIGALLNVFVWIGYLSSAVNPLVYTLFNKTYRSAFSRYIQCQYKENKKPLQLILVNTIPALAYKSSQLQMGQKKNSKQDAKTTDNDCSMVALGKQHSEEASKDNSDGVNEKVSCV
Procedure: (§1) The binding activity of compounds of this invention in vitro was determined as follows. Duplicate determinations of 5-HT6 ligand affinity were made by competing for binding of [^3H]LSD in cell membranes derived from HEK293 cells stably expressing recombinant human 5-HT6 receptor. Duplicate determinations of 5-HT2A ligand affinity were made by competing for binding of [^3H]Ketanserin (3-(2-(4-(4-fluorobenzoyl)piperidinol)ethyl)-2,4(1H,3H)-quinazolinedione) in cell membranes derived from CHO-K1 cells stably expressing recombinant human 5-HT2A receptor. Membranes were prepared from HEK 293 cell lines by the method described by Monsma et al., Molecular Pharmacology, Vol. 43 pp. 320-327 (1993), and from CHO-K1 cell lines as described by Bonhaus et al., Br J Pharmacol. June; 115(4):622-8 (1995).
(§2) For estimation of affinity at the 5-HT6 receptor, all determinations were made in assay buffer containing 50 mM Tris-HCl, 10 mM MgSO4, 0.5 mM EDTA, 1 mM ascorbic acid, pH 7.4 at 37° C., in a 250 microliter reaction volume. […]
(§3) Assay tubes containing [^3H] […] LSD or [^3H]Ketanserin were determined as radioactive counts per minute using Packard TopCount.
(§4) Displacement of [^3H]LSD or [^3H]Ketanserin from the binding sites was quantified by fitting concentration-binding data to a 4-parameter logistic equation: […]

[2] = biological target: T2, recombinant human 5-HT6 receptor (Homo sapiens, UniProt P50406); assay: Radioligand binding, [3H]LSD competition at 5-HT6 receptor; conditions: membranes of HEK293 cells expressing recombinant human 5-HT6 receptor, 37° C., read-out: pKi for the 5-HT6 receptor (converted)
T2 construct: expressed in transfected cells
T2 sequence (P50406 whole entry): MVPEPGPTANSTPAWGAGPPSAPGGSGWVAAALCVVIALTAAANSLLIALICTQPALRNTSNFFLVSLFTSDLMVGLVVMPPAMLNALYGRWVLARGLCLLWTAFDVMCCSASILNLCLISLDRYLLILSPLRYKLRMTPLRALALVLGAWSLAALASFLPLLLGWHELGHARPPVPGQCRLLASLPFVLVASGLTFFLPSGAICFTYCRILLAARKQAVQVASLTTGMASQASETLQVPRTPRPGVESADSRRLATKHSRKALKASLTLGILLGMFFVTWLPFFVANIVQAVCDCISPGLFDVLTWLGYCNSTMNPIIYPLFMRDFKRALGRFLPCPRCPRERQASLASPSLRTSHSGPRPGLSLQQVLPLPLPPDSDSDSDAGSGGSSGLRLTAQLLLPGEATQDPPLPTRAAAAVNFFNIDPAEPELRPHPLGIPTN
Procedure: as §1, §2, §3, §4

Structure (SMILES) | melting point [°C] | Ki [1] [nM] | Ki [2] [nM]
CNCC1CC(=O)c2ccc(S(=O)(=O)c3ccccc3)cc2O1 (centres unmarked) (as salt: TFA) [Compound 1, 7-Benzenesulfonyl-2-methylaminomethyl-chroman-4-one] | 157.8 to 189.6 |  | 
CNCC1CCc2ccc(S(=O)(=O)c3ccccc3)cc2O1 (centres unmarked) (as salt: TFA) [Compound 3, (7-Benzenesulfonyl-chroman-2-ylmethyl)-methyl-amine] | 196.2 to 198.2 |  | 
CNCC1CC(C)(O)c2ccc(S(=O)(=O)c3ccccc3)cc2O1 (centres unmarked) (as salt: trifluoroacetate) [Compound 4, 7-Benzenesulfonyl-4-methyl-2-methylaminomethyl-chroman-4-ol] | 163.9 to 165.3 |  | 
C[C@H](O)C(=O)NC[C@H]1CCc2ccc(S(=O)(=O)c3ccccc3)cc2O1 (stereo in doubt) [Compound 30, (R)-N-(7-Benzenesulfonyl-chroman-2-ylmethyl)-2-hydroxy-propionamide] | 129.5 to 131.5 |  | 
CNC[C@@H]1CCc2ccc(S(=O)(=O)c3ccccc3)cc2O1 [Compound 7, (S)-(7-Benzenesulfonyl-chroman-2-ylmethyl)-methyl-amine] |  | ~56.2 | ~0.1
CNC[C@H]1CCc2ccc(S(=O)(=O)c3cccc(F)c3)cc2O1 [Compound 35, (R)-[7-(3-Fluoro-benzenesulfonyl)-chroman-2-ylmethyl]-methyl-amine] | 259 to 261 |  | 
NC[C@H]1CCc2ccc(S(=O)(=O)c3cccc(F)c3)cc2O1 [Compound 46, (R)-C-[7-(3-Fluoro-benzenesulfonyl)-chroman-2-yl]-methylamine] | 257.1 to 258.9 |  | 
